# Laboratory results published in patent US6716411B2, “Method for finding nucleotide synthesis inhibitors having fewer side effects” (Aventis Pharma Deustschland GmbH, priority 1999, dated 2004).
# Key:
# Format in all cases: in vivo
# [1] = Blood plasma level of compound 1 in the rat with and without colestyramine (HPLC-MS/MS); settings: for half-life: male, Lewis, rat, plasma
# Experimental: A selective HPLC-MS/MS method was used for the detection of compound 1. The quantitative determination of compound 1 from the blood plasma was carried out as follows:
# A solution of an internal standard, then 0.1 M NaOH solution and 1 ml of diethyl ether were added. The mixture was vigorously shaken and the organic phase was discarded. 0.5 N HCl solution was added to the aqueous phase, and the analyte and the internal standard were extracted with 1 ml of diethyl ether. The organic phase was evaporated and taken up in a 1:1 mixture of acetonitrile and water. 10 μl of this solution was injected into an HPLC unit.
# The HPLC unit contained a Lichrospher C-18HD column. Using a flow rate of 1 ml/min, the analyte and the internal standard were eluted using the eluent combination acetonitrile+(ammonium acetate solution [10 mmolar]), 67+33, and then selectively detected by mass spectroscopy (LC-MS/MS analysis). During the analysis of the blood plasma samples, calibration samples were taken.
# In order to test foreign substances in identical metabolic situations, compound 1 was given only to animals with adjuvant arthritis. The arthritis was induced according to Example 1. The animal weight was on average 210 g. Each group consisted of 6 male Lewis rats. Blood samples were obtained from the tail.
# The influence on the blood plasma level of compound 1 was investigated by means of colestyramine. […] During combination therapy with colestyramine, 1000 mg/kg of colestyramine was administered 4 hours after administration of the compound 1. Control animals received 1% CMC at the appropriate times without any active compound. The influence on the pharmacokinetics of compound 1 by colestyramine was investigated both after single administration and after chronic administration of compound 1 with or without colestyramine. Blood samples were obtained 2, 4, 6, 8, 24 and 48 hours after the last administration of compound 1.
# The term “area under the curve” (AUC) is understood as meaning the area under the concentration level of a pharmaceutical substance plotted as a function of time. The AUC reflects the extent to which an organism is exposed to a substance. The term “chronic administration” is understood as meaning an administration of the compound 1 over a period of time which at least leads to constant blood levels of the compound 1. These constant blood levels, referred to as the steady state, are achieved after approximately 4 to 5 half-lives of regular taking.
# [2] = system: adjuvant-induced arthritis; experiment: Adjuvant-induced arthritis model, colestyramine 4 hours after compound 1 (Example 3); settings: for Increase in body weight / Reduction in arthritis score / Reduction in paw swelling / Surviving animals: orally
# Experimental: Example 3 illustrates an experiment to determine whether the action of the minimally effective dose of compound 1 is reduced by administration of colestyramine at a time interval of 4 hours. This was investigated in the adjuvant-induced arthritis model. The model was carried out according to Example 1. Compound 1 was administered orally in 1% CMC daily from the start to the end of the investigation in a dose of 2.5 mg/kg/day. Colestyramine was likewise administered orally in 1% CMC 4 hours after the administration of compound 1. The corresponding control groups received equal volumes of a 1% CMC at the corresponding times.
# In Example 3, we investigated whether relatively constant blood levels existing over a fairly long time were responsible for the desired effects of compound 1 on the immune system, or whether blood levels occurring for a short time (peak blood levels) of compound 1 caused this effect.
# For this, compound 1 was administered orally once daily at the lowest efficacious dose of 2.5 mg/kg/day (see Example 1). In the corresponding comparison groups, colestyramine was administered 4 hours after administration of compound 1 in order to lower the blood levels of compound 1 in an accelerated manner after the absorption phase had taken place. By means of this, the action of blood levels of compound 1 existing for different lengths of time on the immunologically related pathological processes in adjuvant-induced arthritis in the rat was investigated.
# pemphigus vulgaris = experiment: Observation of leflunomide treatment in humans; settings: rheumatoid arthritis patients treated with leflunomide
# Experimental: This diarrhea adversely affected the quality of life of the patient. Because of the problems caused by this side effect, an attempt was made, after more than two years' therapy with a constant dose of 20 mg of leflunomide per day, to end the therapy.
# This observation was surprising, as the active metabolite of leflunomide, compound 1, has a half-life of approximately 14 days in humans. Furthermore, in this patient the blood levels of the active metabolite of leflunomide were repeatedly determined in the relatively high range between 70 mg/l and 85 mg/l.
# [3] = Half-life in the blood plasma of humans; settings: human
# Experimental: The measurement is determined by calculating the half-life of a nucleotide synthesis inhibitor in the blood of a mammal, which is relevant for pharmacokinetic ratios in humans, or in humans in phase I clinical trial development, and comparing it with that of a known nucleotide synthesis inhibitor. The term “half-life” is understood as meaning the time in which the concentration of the nucleotide synthesis inhibitor in the blood plasma is halved. This invention for finding nucleotide synthesis inhibitors which have lower side effects therefore includes
# [4] = chronic administration, 2.5 mg/kg of compound 1
# [5] = chronic administration, 2.5 mg/kg of compound 1 and 1000 mg/kg of colestyramine 4 hours later
# [6] = single administration, 2.5 mg/kg of compound 1
# [7] = single administration, 2.5 mg/kg of compound 1 and 1000 mg/kg of colestyramine 4 hours later
# [8] = 2.5 mg/kg/day of compound 1 alone
# [9] = 2.5 mg/kg/day of compound 1 and 1000 mg/kg/day of cholestyramine 4 hours later
structure (smiles),measurement,setting,value
"C/C(O)=C(\C#N)C(=O)Nc1ccc(C(F)(F)F)cc1 [compound 1, N-(4-trifluoromethylphenyl)-2-cyano-3-hydroxycrotonamide]",Area under the curve 0-48 hours,[1]; [4],63.58 μg/ml × hr
same,Maximum blood plasma level,[1]; [4],5.73 µg/mL
same,Area under the curve 0-48 hours,[1]; [5],37.81 μg/ml × hr
same,Maximum blood plasma level,[1]; [5],4.66 µg/mL
same,half-life,"[1]; oral, 2.5 mg/kg, chronic administration, 2.5 mg/kg of compound 1",3.45 h
same,half-life,"[1]; oral, 2.5 mg/kg, single administration, 2.5 mg/kg of compound 1, rats with adjuvant arthritis",3.85 h
same,half-life,"[1]; oral, chronic administration, 2.5 mg/kg of compound 1 and 1000 mg/kg of colestyramine 4 hours later",3.47 h
same,half-life,"[1]; oral, single administration, 2.5 mg/kg of compound 1 and 1000 mg/kg of colestyramine 4 hours later",3.32 h
same,half-life,"[1]; po, 2.5 mg/kg/day, in rats, approximately, orally administered",4 to 8 h
same,AUC reduced by administration of colestyramine,[1]; multiple administration,40%
same,AUC reduced by administration of colestyramine,[1]; single administration,30%
same,Area under the curve 0-48 hours,[1]; [6],141.69 μg/ml × hr
same,Maximum blood plasma level,[1]; [6],10.15 µg/mL
same,Area under the curve 0-48 hours,[1]; [7],99.90 μg/ml × hr
same,Maximum blood plasma level,[1]; [7],9.62 µg/mL
same,desired action on adjuvant-induced arthritis with versus without colestyramine 4 hours after compound 1,[2]; 2.5 mg/kg/day of compound 1,No difference was seen
same,Increase in body weight,[2]; [8],20%
same,Reduction in arthritis score,[2]; [8],70%
same,Reduction in paw swelling,[2]; [8],78%
same,Surviving animals,[2]; [8],100%
same,Increase in body weight,[2]; [9],20%
same,Reduction in arthritis score,[2]; [9],81%
same,Reduction in paw swelling,[2]; [9],86%
same,Surviving animals,[2]; [9],100%
same,blood levels of the compound 1,pemphigus vulgaris,over 32 mg/l
same,half-life,[3],≤ 350 h
same,half-life,[3]; approximately,~336 h
